Assay results: US10179770B2, “Quinolines derivatives as novel anticancer agents” (GENOSCIENCE PHARMA, priority 2013, dated 2019)
pEC50: −log10 of the molar value.

Assays:
MOLM-14 cell line = test: Growth inhibition assay of MOLM-14 (CellTiter-Glo, example 63); format: cell-based; settings: Homo sapiens, 48 h, method of example 63
Experimental: MOLM-14 cell line was cultured in RPMI-1640 Medium supplemented with 10% v/v Fetal Bovine Serum (FBS), 1% Penicillin-Streptomycin and maintained at 37° C. with 5% CO2. 10,000 cells were plated onto 96-well plates immediately before the assay.
Each compound was added at different concentrations (combinations of six concentrations) to each well, and cell cultures were incubated for 48 h. Vehicle (H2O) was used as a control, and all compounds were tested in a constant percentage of vehicle. Cell outgrowth was measured using the CellTiter-Glo luminescent cell viability assay as described by the manufacturer (Promega, Ref G7571 Madison, Wis., USA) using a Centro (Berthold, France) plate reader.
In each experiment, each point represents the average of triplicates in cell culture.
The experimental data are analyzed using a computer program, Graphpad Prism (GraphPad Software, Inc. La Jolla, Calif.) and EC50 values were determined as the dose of compound required to reduce absorbance values to 50% of the signal obtained for vehicle treated cell cultures.

[1] = test system: ALDH+ cancer stem cells (CSC) in MOLM-14 cell line; test: Aldefluor kit assay, ALDH+ compartment analysis; format: cell-based, human; settings: for Activity against CSCs in Aldefluor™ assay (proportion of CSCs) / Aldefluor™ positive CSCs (% of control): MOLM-14; for Activity against CSCs in Aldefluor™ assay (proportion of CSCs): dose dependent, Cytarabine up to 3-fold its EC50; for Aldefluor positive CSCs (% of control): MOLM-14 cell line, 72 h incubation; for Aldefluor™ positive CSCs (% of control): 72 h
Source text: Analysis of the of aldehyde dehydrogenase (ALDH) compartment and high activity level of aldehyde dehydrogenase activity (ALDH+) was used to detect tumor initiating cells (cancer stem cells, CSC) population. The Aldefluor™ kit assay (StemCell Technologies) allowed to assess the activity of drugs on CSC cells like in aa MOLM-14 acute myeloid leukemia cell line population. The Aldefluor™ kit assay was used according to the procedure described by the manufacturer. Briefly, MOLM-14 cell line was cultured in RPMI-1640 Medium supplemented with 10% v/v Fetal Bovine Serum (FBS), 1% Penicillin-Streptomycin and maintained at 37° C. with 5% CO2. 5·10^5 cells were used in this assay. Each compound was added at different concentrations (see table 13 and 14), and cell cultures were incubated for 72 h. Vehicle (H2O) was used as a control, and all compounds were tested in a constant percentage of vehicle. Cells obtained from cell culture were incubated for 45 minutes at 37° C. with Aldefluor™ buffer assay containing the Bodipy™-aminoacetaldehyde (BAAA), a fluorescent ALDH aldehyde substrate. ALDH converts the fluorescent substrate BAAA to the Bodipy™-aminoacetic acid (BAA) which is retained in the cell. An active efflux inhibitor is present in the Adelfluor™ assay buffer in order to avoid the active efflux from the cell of the substrate product ALDH dependent converted BAA. The fluorescent signal is directly proportional to the ALDH activity in the cells and is measured by flow cytometry. A negative control is used to measure the background fluorescence level. For such purpose, 4-(N,N-diethylamino)-benzaldehyde (DEAB) was used as selective ALDH inhibitor. A viability cell count was performed using LIVE/DEAD® Fixable Far Red Dead Cell Stain Kit (Invitrogen). The experimental data are analyzed using a computer program, Graphpad Prism (GraphPad Software, Inc. La Jolla, Calif.) and EC50 values were determined as the dose of compound required to reduce absorbance values to 50% of the signal obtained for vehicle treated cell cultures.

OVCAR-3 = test: NCI-60 screen (SRB); format: cell-based, human; settings: OVCAR-3 (Ovarian)
Experimental: (§1) The human tumor cell lines of the cancer screening panel are grown in RPMI 1640 medium containing 5% fetal bovine serum and 2 mM L-glutamine. For a typical screening experiment, cells are inoculated into 96 well microtiter plates in 100 μL at plating densities ranging from 5,000 to 40,000 cells/well depending on the doubling time of individual cell lines. After cell inoculation, the microtiter plates are incubated at 37° C., 5% CO2, 95% air and 100% relative humidity for 24 h prior to addition of experimental drugs.
(§2) After 24 h, two plates of each cell line are fixed in situ with TCA, to represent a measurement of the cell population for each cell line at the time of drug addition (Tz). Experimental drug is solubilized in dimethyl sulfoxide at 400-fold the desired final maximum test concentration and stored frozen prior to use. At the time of drug addition, an aliquot of frozen concentrate is thawed and diluted to twice the desired final maximum test concentration with complete medium containing 50 μg/ml gentamicin. Additional four, 10-fold or ½ log serial dilutions are made to provide a total of five drug concentrations plus control. Aliquots of 100 μl of these different drug dilutions are added to the appropriate microtiter wells already containing 100 μl of medium, resulting in the required final drug concentrations.
(§3) Following drug addition, the plates are incubated for an additional 48 h at 37° C., 5% CO2, 95% air, and 100% relative humidity. For adherent cells, the assay is terminated by the addition of cold TCA. Cells are fixed in situ by the gentle addition of 50 μl of cold 50% (w/v) TCA (final concentration, 10% TCA) and incubated for 60 minutes at 4° C. The supernatant is discarded, and the plates are washed five times with tap water and air dried. Sulforhodamine B (SRB) solution (100 μl) at 0.4% (w/v) in 1% acetic acid is added to each well, and plates are incubated for 10 minutes at room temperature. After staining, unbound dye is removed by washing five times with 1% acetic acid and the plates are air dried. Bound stain is subsequently solubilized with 10 mM trizma base, and the absorbance is read on an automated plate reader at a wavelength of 515 nm. For suspension cells, the methodology is the same except that the assay is terminated by fixing settled cells at the bottom of the wells by gently adding 50 μl of 80% TCA (final concentration, 16% TCA). Using the seven absorbance measurements [time zero, (Tz), control growth, (C), and test growth in the presence of drug at the five concentration levels (Ti)], the percentage growth is calculated at each of the drug concentrations levels.
(§4) Percentage growth inhibition is calculated as: [(Ti−Tz)/(C−Tz)]×100 for concentrations for which Ti>/=Tz (1) [(Ti−Tz)/Tz]×100 for concentrations for which Ti<Tz (2)
(§5) Growth inhibition of 50% (GI50) is calculated from [(Ti−Tz)/(C−Tz)]×100=50 (3)
(§6) which is the drug concentration resulting in a 50% reduction in the net protein increase (as measured by SRB staining) in control cells during the drug incubation.
(§7) The drug concentration resulting in total growth inhibition (TGI) is calculated from Ti=Tz (4)
(§8) The LC50 (concentration of drug resulting in a 50% reduction in the measured protein at the end of the drug treatment as compared to that at the beginning) indicating a net loss of cells following treatment is calculated from [(Ti−Tz)/Tz]×100=−50 (5)
(§9) Values are calculated for each of these three parameters if the level of activity is reached; however, if the effect is not reached or is exceeded, the value for that parameter is expressed as greater or less than the maximum or minimum concentration tested.

UACC-62 = test: NCI-60 screen (SRB); format: cell-based, human; settings: UACC-62 (Melanoma)
Experimental: as §1, §2, §3, §4, §5, §6, §7, §8, §9

PC-3 = test: NCI-60 screen (SRB); format: cell-based, human; settings: PC-3 (Prostate)
Experimental: as §1, §2, §3, §4, §5, §6, §7, §8, §9

SMILES: Cc1ccc(-c2cc(N3CCC(NC(C)(C)C)CC3)c3ccccc3n2)cc1.Cl.Cl [XIII-8, 2-(4-methyl-phenyl)-4-(4-N-tert-butylamino-piperidin-1-yl)quinoline dihydrochloride]
- pEC50 (MOLM-14 cell line): 5.22
- Activity against CSCs in Aldefluor™ assay (proportion of CSCs) [1]: reduced the proportion of CSCs
- Aldefluor positive CSCs (% of control) ([1]; 5 μM): 84 % of control
- Aldefluor positive CSCs (% of control) ([1]; 10 μM): 83 % of control
- Aldefluor positive CSCs (% of control) ([1]; 20 μM): 58 % of control
- Aldefluor positive CSCs (% of control) ([1]; 40 μM): 23 % of control

SMILES: CCN(CC)C1CCN(C(C)c2cc(-c3ccccc3)nc3ccccc23)CC1.Cl.Cl (stereo not drawn) [XIX-3, 2-phenyl-4-{1-[4-(N,N-diethylamino)piperidin-1-yl]-eth-1-yl}quinoline dihydrochloride]
- pEC50 (MOLM-14 cell line): 4.66
- Aldefluor™ positive CSCs (% of control) ([1]; 5 μM): 86 % of control
- Aldefluor™ positive CSCs (% of control) ([1]; 10 μM): 66 % of control
- Aldefluor™ positive CSCs (% of control) ([1]; 20 μM): 42 % of control
- Aldefluor™ positive CSCs (% of control) ([1]; 40 μM): 25 % of control
- Activity against CSCs in Aldefluor™ assay (proportion of CSCs) [1]: reduced the proportion of CSCs
- GI50 (OVCAR-3; Homo sapiens): 14 µM
- CC50 (OVCAR-3; Homo sapiens, read-out: LC50 (the source's name)): 55 µM
- TGI (OVCAR-3): 28 µM
- Growth percent at 10 μM (OVCAR-3): + (cell growth 60 > % < 80)
- Growth percent at 10 μM (UACC-62): ×××× (cell growth −60 > % < −80)
- Growth percent at 10 μM (PC-3): + (cell growth 60 > % < 80)

SMILES: CC(C)(C)NC1CCN(c2cc(-c3ccc(Cl)cc3)nc3ccccc23)CC1.Cl.Cl [XII-4, 2-(4-chloro-phenyl)-4-(4-N-tert-butylamino-piperidin-1-yl)quinoline dihydrochloride]
- Growth percent at 10 μM (OVCAR-3): − (cell growth % > 80)
- Growth percent at 10 μM (UACC-62): ××××× (cell growth % < −80)
- Growth percent at 10 μM (PC-3): +++ (cell growth 20 > % < 40)
